Assay results: patent US9737512B2, “Methods and compositions for treating chronic pain” (THE BOARD OF REGENTS OF THE UNIVERSITY OF TEXAS SYSTEM, priority 2015, dated 2017)

Experiments:
rickettsioses = conditions: daily 10 mg/kg IP or 50 mg/kg oral gavage, mice; cited from earlier work
[1] = test system: ovalbumin-induced oral tolerance; conditions: daily 10 mg/kg IP or 50 mg/kg oral gavage; cited from earlier work
[2] = test system: CFA-induced heat hyperalgesia; assay: CFA-induced heat hyperalgesia, Hargreaves test; type: in vivo, mice
Description: FIG. 2. Effect of ESI-09 on CFA-induced heat hyperalgesia. (A) Mice (n=4/group) received 5 μl CFA intraplantarly in the hind paws and were treated with vehicle or ESI-09 20 mg/kg (n=4) daily by oral gavage for 6 days starting after CFA injection. Heat hyperalgesia was determined using the Hargreaves test and is expressed as heat-withdrawal latency in seconds. (B) CFA-induced heat hyperalgesia in WT and Epac1−/− mice. (C) Heat sensitivity of saline treated mice with 20 mg/kg ESI-09. Data represent mean±SEM (n=4 per group).
Intraplantar administration of CFA also induces significant heat hyperalgesia (FIG. 2A). However, no effect of ESI-09 (20 mg/kg) on heat hyperalgesia was detected (FIG. 2A). Consistently, CFA-induced heat hyperalgesia was not different between WT and Epac1−/− mice.

EPAC2 = biological target: T1, EPAC2 (Mus musculus, UniProt Q9EQZ6); conditions: cited from earlier work
T1 sequence (Q9EQZ6 1-1011): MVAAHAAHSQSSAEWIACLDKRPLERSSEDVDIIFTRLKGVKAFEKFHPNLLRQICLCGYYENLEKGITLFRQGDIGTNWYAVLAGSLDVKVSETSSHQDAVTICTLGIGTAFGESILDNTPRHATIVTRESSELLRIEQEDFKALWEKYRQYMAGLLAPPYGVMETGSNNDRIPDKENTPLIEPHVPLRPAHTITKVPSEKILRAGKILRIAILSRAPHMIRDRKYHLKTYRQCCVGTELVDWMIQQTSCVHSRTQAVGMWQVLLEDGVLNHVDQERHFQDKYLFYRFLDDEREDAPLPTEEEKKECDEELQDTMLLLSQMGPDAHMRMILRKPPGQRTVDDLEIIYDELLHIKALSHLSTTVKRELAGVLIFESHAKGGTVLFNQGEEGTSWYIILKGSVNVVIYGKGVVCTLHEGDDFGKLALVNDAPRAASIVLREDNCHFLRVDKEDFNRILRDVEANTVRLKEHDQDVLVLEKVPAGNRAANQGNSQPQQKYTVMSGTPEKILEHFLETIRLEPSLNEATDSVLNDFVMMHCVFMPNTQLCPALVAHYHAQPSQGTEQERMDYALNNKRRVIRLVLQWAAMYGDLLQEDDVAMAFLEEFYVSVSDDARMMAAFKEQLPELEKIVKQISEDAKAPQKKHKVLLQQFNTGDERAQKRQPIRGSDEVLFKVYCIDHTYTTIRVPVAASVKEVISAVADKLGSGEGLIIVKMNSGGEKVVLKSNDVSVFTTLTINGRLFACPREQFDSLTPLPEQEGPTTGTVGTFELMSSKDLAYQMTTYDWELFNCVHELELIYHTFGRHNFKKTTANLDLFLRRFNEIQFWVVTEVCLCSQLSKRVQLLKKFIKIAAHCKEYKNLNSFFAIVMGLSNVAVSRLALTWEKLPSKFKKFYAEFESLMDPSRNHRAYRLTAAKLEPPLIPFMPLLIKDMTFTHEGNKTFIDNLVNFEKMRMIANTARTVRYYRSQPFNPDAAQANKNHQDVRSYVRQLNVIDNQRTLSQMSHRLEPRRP

[3] = test system: SNI-induced mechanical allodynia; assay: Spared nerve injury (SNI)-induced mechanical allodynia, von Frey; type: in vivo, mice
Description: FIG. 3. Effect of ESI-09 on Spared nerve injury (SNI)-induced mechanical allodynia. Spared nerve injury was performed on WT mice and mice were treated daily with ESI-09 (50 mg/kg) or vehicle by oral gavage for 6 days starting on the 3rd day after SNI. Mechanical allodynia was monitored in (A) ipsi- and (B) contralateral paw using von Frey hairs and the up and down method at 24 hours after ESI-treatment (n=7 per group). Data are expressed as 50% paw withdrawal thresholds calculated as described in the methods section and represent mean±SEM. n=7/group. *p<0.05, **p<0.01 vs. vehicle group.
It has been shown that EPAC1−/− mice are protected against neuropathic pain in a model of nerve injury. The effect of ESI-09 in the spared nerve injury (SNI) model of chronic neuropathic pain was examined. […] As expected, mice treated with vehicle developed unilateral mechanical allodynia ([…]). […] The beneficial effect of ESI-09 was maintained for 48 hours after the last dose.

[4] = test system: paclitaxel-induced mechanical allodynia; assay: Paclitaxel (chemotherapy)-induced mechanical allodynia, von Frey; type: in vivo, mice
Description: FIG. 4. Effect of ESI-09 on chemotherapy-induced mechanical allodynia. Mice (n=5/group) were treated with paclitaxel (10 mg/kg, Monday, Wednesday and Friday) for two weeks. ESI-09 (20 mg/kg) or vehicle was given by oral gavage for 6 days starting on the first day (A) or 10 days (B) after completion of paclitaxel treatment. The sensitivity to mechanical stimulation was determined in wild-type (n=5) and Epac1−/− (n=4) in the same paclitaxel model (C). Mechanical allodynia was monitored by von Frey hair using the up and down method. Data are expressed as means±SEM. *p<0.05, ** p<0.01.
Chemotherapy-induced peripheral neuropathy is a frequent side effect of cancer treatment, and currently there are no FDA-approved drugs to treat or prevent chemotherapy-induced neuropathy. The model of paclitaxel-induced mechanical allodynia to investigate the potential effect of ESI-09 on chemotherapy-induced neuropathy. Mice were treated with three doses (10 mg/kg/dose) of paclitaxel per week for 2 weeks. Administration of ESI-09 was started on the first day after completion of paclitaxel treatment when there was clear allodynia present. Mice were treated daily with ESI-09 (20 mg/kg) or vehicle by oral gavage for 6 days. […] The beneficial effect of treatment was detectable until 72 hours after the last dose of ESI-09. In a second set of experiments, ESI-09 treatment was delayed until 10 days after the completion of paclitaxel treatment.

[5] = test system: pancreatic cancer cell lines; conditions: cited from earlier work
[6] = test system: CFA-induced mechanical allodynia; assay: CFA-induced mechanical allodynia, von Frey test; type: in vivo, mice
Description: FIG. 1. Effect of ESI-09 in CFA-induced inflammatory mechanical allodynia. (A) Mice (n=4/group) received 5 μl CFA intraplantarly in the hind paws and were treated with vehicle or ESI-09 20 mg/kg (n=4) daily by oral gavage for 6 days starting immediately after CFA injection. Mechanical allodynia was quantified with von Frey Hairs using the up and down method at 24 hours after ESI treatment. (B) CFA-induced mechanical allodynia in WT, heterozygous, and homozygous Epac1-knockout mice. The sensitivity to mechanical stimulation was followed over time in wild-type (WT, n=3), Epac1^+/− (HE, n=6) and Epac1^−/− (HO, n=5) mice after intraplantar injection of 5 μl CFA. […] (D) Dose-response curve for the effect of ESI-09 (5, 20, or 50 mg/kg). Treatment was started on the 3rd day after CFA administration (n=4/group) (E) Mechanical allodynia was measured in WT mice with 6 days treatments of ESI-09 20 (n=3) and 50 mg/kg (n=4) to control for a potential effect on baseline mechanical sensitivity. Data are expressed as 50% withdrawal threshold in grams calculated as described in the methods section and represent mean±SEM. […] In FIG. 1B, *p<0.05, ** p<0.01 for WT versus HO, #p<0.05, ##P<0.01 for WT versus HE, +p<0.05, ++p<0.01 for HE versus HO. In FIG. 1D, **p<0.01 and ##p<0.01 are ESI-09 50 mg/kg and ESI-09 20 mg/kg compared to the Vehicle treated mice.
To determine whether the Epac inhibitor ESI-09 can be used to treat inflammatory pain, the CFA model was used. CFA was administered intraplantarly and mice were treated with ESI-09 20 mg/kg daily by oral gavage for 6 days starting immediately after injection of CFA. Mechanical allodynia was examined using the von Frey test.
ESI-09 20 mg/kg was administered orally three days after CFA. […] The effect of ESI-09 was dose-dependent (FIG. 1D). […] The beneficial effect of ESI-09 was detectable until at least 24 hours after the last dose. No effect of daily oral administration of 50 mg/kg ESI-09 on mechanical sensitivity in saline treated control mice was observed ([…]).

pancreatic cell lines = conditions: cited from earlier work
PKA = conditions: at 25 μM; cited from earlier work
[7] = 50 mg/kg oral gavage daily 6 days, starting 3 days after SNI

CC(C)(C)c1cc(C(=O)/C(C#N)=N/Nc2cccc(Cl)c2)no1 [ESI-09, 3-(5-tert-Butyl-isoxazol-3-yl)-2-[(3-chlorophenyl)-hydrazono]-3-oxo-propionitrile]
protection from lethal rickettsioses (recapitulates EPAC1 knockout phenotype) (rickettsioses): protecting mice from lethal rickettsioses
ovalbumin-induced oral tolerance (recapitulates EPAC1 knockout phenotype) [1]: compromising ovalbumin-induced oral tolerance
CFA-induced heat hyperalgesia ([2]; 20 mg/kg daily oral gavage): no effect
heat sensitivity of naïve animals ([2]; naïve animals): did not affect
IC50 (EPAC2): 1400 nM
SNI-induced mechanical allodynia, ipsilateral paw [3, 7]: almost completely reversed
normal mechanical sensitivity, contralateral paw [3, 7]: without affecting
time beneficial effect maintained after the last dose ([3]; SNI model, 50 mg/kg): 48 h
paclitaxel-induced mechanical allodynia ([4]; 20 mg/kg oral gavage daily 6 days, started first day after completion of paclitaxel): almost completely rescued
time beneficial effect detectable after the last dose ([4]; paclitaxel model, 20 mg/kg): 72 h
paclitaxel-induced mechanical allodynia, later phase ([4]; treatment delayed until 10 days after completion of paclitaxel): significantly inhibited
migration of pancreatic cancer cell lines [5]: inhibits
CFA-induced mechanical allodynia ([6]; 5 mg/kg (lowest dose), started 3rd day after CFA): did not observe an effect
CFA-induced mechanical allodynia ([6]; 20 mg/kg daily oral gavage 6 days, starting immediately after CFA): strongly inhibited
time inhibition is maintained after administration ([6]; 20 mg/kg oral, started three days after CFA): at least 24 h
inhibition of CFA-induced mechanical allodynia at 2 hours ([6]; 20 mg/kg oral, started three days after CFA, 2 hours after administration): Partial inhibition
inhibition of CFA-induced mechanical allodynia at 6 hours ([6]; 20 mg/kg oral, started three days after CFA, 6 hours after administration): fully developed
CFA-induced mechanical allodynia ([6]; 20 mg/kg, started 3rd day after CFA): significantly reduced
mechanical sensitivity in saline treated control mice ([6]; 50 mg/kg daily oral): No effect
CFA-induced mechanical allodynia ([6]; 50 mg/kg, started 3rd day after CFA): significantly reduced
dose dependence of effect on CFA-induced mechanical allodynia ([6]; 5, 20 or 50 mg/kg, started 3rd day after CFA): dose-dependent
time beneficial effect detectable after the last dose ([6]; CFA model): at least 24 hours
mechanical sensitivity of control mice ([6]; ESI-09 given to control mice (no CFA)): did not have any effect
insulin secretion (pancreatic cell lines): blocks
phosphorylation of Akt (pancreatic cell lines): blocks
activity against PKA (PKA): no activity
